How the values were obtained:
[1] = biological target: Serine/threonine-protein kinase PAK 6 (Homo sapiens) (UniProt Q9NQU5); conditions: Compound concentration 1000.0 nM
[2] = biological target: STE20/SPS1-related proline-alanine-rich protein kinase (Homo sapiens) (UniProt Q9UEW8); conditions: Compound concentration 1000.0 nM
[3] = tested on: Receptor-type tyrosine-protein kinase FLT3 (Homo sapiens), P36888 [R834Q]; conditions: Compound concentration 1000.0 nM
[4] = biological target: G protein-coupled receptor kinase 3 (Homo sapiens) (UniProt P35626); conditions: Compound concentration 1000.0 nM
[5] = biological target: Serine/threonine-protein kinase mTOR (Homo sapiens) (UniProt P42345); conditions: Compound concentration 1000.0 nM
[6] = biological target: Myosin-IIIa (Homo sapiens) (UniProt Q8NEV4); conditions: Compound concentration 1000.0 nM
[7] = biological target: 5-hydroxytryptamine receptor 2A (Homo sapiens) (UniProt P28223); conditions: Compound concentration 10.0 uM
[8] = biological target: Death-associated protein kinase 3 (Homo sapiens) (UniProt O43293); conditions: Compound concentration 1000.0 nM
[9] = biological target: SNF-related serine/threonine-protein kinase (Homo sapiens) (UniProt Q9NRH2); conditions: Compound concentration 1000.0 nM
[10] = biological target: Adenosine receptor A2a (Homo sapiens) (UniProt P29274); test: A2A (h) CEREP ligand profiling; conditions: filed as agonist, Compound concentration 10.0 uM
[11] = biological target: T1, Alpha-1B adrenergic receptor (Homo sapiens) (UniProt P35368); conditions: Compound concentration 10.0 uM
T1 sequence (whole entry): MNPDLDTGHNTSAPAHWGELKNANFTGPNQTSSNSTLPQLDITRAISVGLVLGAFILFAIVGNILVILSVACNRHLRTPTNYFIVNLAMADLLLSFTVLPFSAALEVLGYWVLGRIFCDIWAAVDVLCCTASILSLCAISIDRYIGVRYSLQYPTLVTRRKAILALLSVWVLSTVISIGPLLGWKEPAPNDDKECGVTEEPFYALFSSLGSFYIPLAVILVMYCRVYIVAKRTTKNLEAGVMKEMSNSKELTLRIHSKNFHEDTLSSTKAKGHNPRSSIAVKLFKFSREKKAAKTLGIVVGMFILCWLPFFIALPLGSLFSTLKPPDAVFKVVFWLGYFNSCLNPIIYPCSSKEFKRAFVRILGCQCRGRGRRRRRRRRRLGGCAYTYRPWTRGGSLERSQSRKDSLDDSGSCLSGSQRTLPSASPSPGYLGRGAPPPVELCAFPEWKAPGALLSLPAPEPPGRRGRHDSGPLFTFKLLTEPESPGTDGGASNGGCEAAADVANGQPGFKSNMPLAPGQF

[12] = tested on: Phosphatidylinositol 4,5-bisphosphate 3-kinase catalytic subunit alpha isoform (Homo sapiens), P42336 [M1043I]; conditions: Compound concentration 1000.0 nM
[13] = biological target: Alpha-2C adrenergic receptor (Homo sapiens) (UniProt P18825); conditions: Compound concentration 10.0 uM
[14] = biological target: Serine/threonine-protein kinase 16 (Homo sapiens) (UniProt O75716); conditions: Compound concentration 1000.0 nM
[15] = tested on: Mast/stem cell growth factor receptor Kit (Homo sapiens), P10721 [V559D,V654A]; conditions: Compound concentration 1000.0 nM
[16] = tested on: ALK tyrosine kinase receptor (Homo sapiens), Q9UM73 [L1196M]; conditions: Compound concentration 1000.0 nM
[17] = biological target: Histamine H2 receptor (Homo sapiens) (UniProt P25021); test: H2 (h) CEREP ligand profiling; conditions: filed as antagonist, Compound concentration 10.0 uM
[18] = biological target: Ephrin type-B receptor 2 (Homo sapiens) (UniProt P29323); conditions: Compound concentration 1000.0 nM
[19] = biological target: cAMP-dependent protein kinase catalytic subunit beta (Homo sapiens) (UniProt P22694); conditions: Compound concentration 1000.0 nM
[20] = biological target: Casein kinase I isoform alpha-like (Homo sapiens) (UniProt Q8N752); conditions: Compound concentration 1000.0 nM
[21] = biological target: Receptor-interacting serine/threonine-protein kinase 4 (Homo sapiens) (UniProt P57078); conditions: Compound concentration 1000.0 nM
[22] = biological target: Misshapen-like kinase 1 (Homo sapiens) (UniProt Q8N4C8); conditions: Compound concentration 1000.0 nM
[23] = biological target: Acetylcholinesterase (Homo sapiens) (UniProt P22303); test: acetylcholinesterase (h) CEREP ligand profiling; conditions: Compound concentration 10.0 uM
[24] = biological target: Dual specificity mitogen-activated protein kinase kinase 2 (Homo sapiens) (UniProt P36507); conditions: Compound concentration 1000.0 nM
[25] = biological target: Ribosomal protein S6 kinase alpha-2 (Homo sapiens) (UniProt Q15349); conditions: Compound concentration 1000.0 nM
[26] = biological target: Vascular endothelial growth factor receptor 2 (Homo sapiens) (UniProt P35968); conditions: Compound concentration 1000.0 nM
[27] = biological target: Tyrosine-protein kinase receptor TYRO3 (Homo sapiens) (UniProt Q06418); conditions: Compound concentration 1000.0 nM
[28] = biological target: D(1A) dopamine receptor (Homo sapiens) (UniProt P21728); test: D1 (h) CEREP ligand profiling; conditions: filed as antagonist, Compound concentration 10.0 uM
[29] = biological target: Serine/threonine-protein kinase haspin (Homo sapiens) (UniProt Q8TF76); conditions: Compound concentration 1000.0 nM
[30] = biological target: Ephrin type-A receptor 3 (Homo sapiens) (UniProt P29320); conditions: Compound concentration 1000.0 nM
[31] = tested on: Phosphatidylinositol 4,5-bisphosphate 3-kinase catalytic subunit alpha isoform (Homo sapiens), P42336 [H1047Y]; conditions: Compound concentration 1000.0 nM
[32] = biological target: NUAK family SNF1-like kinase 2 (Homo sapiens) (UniProt Q9H093); conditions: Compound concentration 1000.0 nM
[33] = biological target: Serine/threonine-protein kinase MRCK gamma (Homo sapiens) (UniProt Q6DT37); conditions: Compound concentration 1000.0 nM
[34] = biological target: Serine/threonine-protein kinase tousled-like 1 (Homo sapiens) (UniProt Q9UKI8); conditions: Compound concentration 1000.0 nM
[35] = biological target: Phosphatidylinositol 3-kinase C2 domain-containing subunit gamma (Homo sapiens) (UniProt O75747); conditions: Compound concentration 1000.0 nM
[36] = biological target: Ephrin type-A receptor 5 (Homo sapiens) (UniProt P54756); conditions: Compound concentration 1000.0 nM
[37] = biological target: Serine/threonine-protein kinase 38 (Homo sapiens) (UniProt Q15208); conditions: Compound concentration 1000.0 nM
[38] = biological target: Calcium/calmodulin-dependent protein kinase type 1G (Homo sapiens) (UniProt Q96NX5); conditions: Compound concentration 1000.0 nM

Chain of ALK tyrosine kinase receptor (Homo sapiens), Q9UM73 [L1196M] (Q9UM73 whole entry L1196M, looked up): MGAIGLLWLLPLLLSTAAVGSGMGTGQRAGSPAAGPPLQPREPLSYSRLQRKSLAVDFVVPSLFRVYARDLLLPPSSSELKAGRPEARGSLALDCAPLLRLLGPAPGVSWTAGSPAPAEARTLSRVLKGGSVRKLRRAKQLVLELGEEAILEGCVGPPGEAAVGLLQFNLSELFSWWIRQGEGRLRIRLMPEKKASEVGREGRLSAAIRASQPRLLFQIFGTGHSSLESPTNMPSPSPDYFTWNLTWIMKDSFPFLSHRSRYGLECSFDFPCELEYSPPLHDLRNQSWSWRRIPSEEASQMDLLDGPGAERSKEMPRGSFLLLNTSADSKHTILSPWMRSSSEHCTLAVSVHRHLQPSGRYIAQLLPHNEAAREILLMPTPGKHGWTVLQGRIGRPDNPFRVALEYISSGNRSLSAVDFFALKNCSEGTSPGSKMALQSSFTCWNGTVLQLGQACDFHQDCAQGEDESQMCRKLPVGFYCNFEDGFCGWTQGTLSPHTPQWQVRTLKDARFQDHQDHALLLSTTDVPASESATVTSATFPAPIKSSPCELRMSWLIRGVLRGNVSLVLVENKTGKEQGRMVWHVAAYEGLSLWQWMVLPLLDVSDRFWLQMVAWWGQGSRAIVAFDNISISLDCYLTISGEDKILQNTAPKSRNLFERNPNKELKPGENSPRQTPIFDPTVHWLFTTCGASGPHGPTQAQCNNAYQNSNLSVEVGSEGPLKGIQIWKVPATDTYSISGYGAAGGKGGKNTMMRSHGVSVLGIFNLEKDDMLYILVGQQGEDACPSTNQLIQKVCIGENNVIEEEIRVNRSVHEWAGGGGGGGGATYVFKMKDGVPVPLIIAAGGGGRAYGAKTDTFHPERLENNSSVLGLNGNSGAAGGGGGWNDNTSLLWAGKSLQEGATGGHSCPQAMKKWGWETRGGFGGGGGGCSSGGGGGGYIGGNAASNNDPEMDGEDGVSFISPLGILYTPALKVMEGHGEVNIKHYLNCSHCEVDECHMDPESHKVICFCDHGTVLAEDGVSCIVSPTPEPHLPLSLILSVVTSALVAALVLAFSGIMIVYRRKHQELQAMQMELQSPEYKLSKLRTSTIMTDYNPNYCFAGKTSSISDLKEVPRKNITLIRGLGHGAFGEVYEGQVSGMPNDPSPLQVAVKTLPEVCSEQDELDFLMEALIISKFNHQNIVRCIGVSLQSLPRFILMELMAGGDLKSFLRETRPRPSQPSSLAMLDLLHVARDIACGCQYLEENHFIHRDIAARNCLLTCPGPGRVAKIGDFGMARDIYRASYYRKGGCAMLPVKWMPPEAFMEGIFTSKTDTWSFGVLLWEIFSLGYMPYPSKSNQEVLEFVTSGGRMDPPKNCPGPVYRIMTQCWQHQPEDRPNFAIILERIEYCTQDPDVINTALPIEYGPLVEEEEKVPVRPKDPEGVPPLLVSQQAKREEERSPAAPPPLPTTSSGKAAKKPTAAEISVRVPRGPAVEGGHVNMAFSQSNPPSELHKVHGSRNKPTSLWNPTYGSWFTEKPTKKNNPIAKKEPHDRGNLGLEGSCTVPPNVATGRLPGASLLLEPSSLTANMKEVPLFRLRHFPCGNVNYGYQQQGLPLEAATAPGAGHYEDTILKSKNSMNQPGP
Chain of Serine/threonine-protein kinase 38 (Homo sapiens) (Q15208 2-465 limits assumed): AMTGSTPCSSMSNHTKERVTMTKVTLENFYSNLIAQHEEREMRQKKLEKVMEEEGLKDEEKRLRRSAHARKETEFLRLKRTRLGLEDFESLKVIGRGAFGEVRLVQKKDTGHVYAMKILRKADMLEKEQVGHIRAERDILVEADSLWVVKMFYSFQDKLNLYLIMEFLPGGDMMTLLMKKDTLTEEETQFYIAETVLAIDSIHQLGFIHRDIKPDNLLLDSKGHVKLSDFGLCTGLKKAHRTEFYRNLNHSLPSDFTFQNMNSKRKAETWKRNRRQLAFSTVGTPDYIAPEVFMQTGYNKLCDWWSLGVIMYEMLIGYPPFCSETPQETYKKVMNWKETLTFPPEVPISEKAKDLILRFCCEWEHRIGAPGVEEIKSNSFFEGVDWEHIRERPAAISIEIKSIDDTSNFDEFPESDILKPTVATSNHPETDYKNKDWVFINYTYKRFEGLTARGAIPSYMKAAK
Chain of Receptor-interacting serine/threonine-protein kinase 4 (Homo sapiens) (P57078 whole entry): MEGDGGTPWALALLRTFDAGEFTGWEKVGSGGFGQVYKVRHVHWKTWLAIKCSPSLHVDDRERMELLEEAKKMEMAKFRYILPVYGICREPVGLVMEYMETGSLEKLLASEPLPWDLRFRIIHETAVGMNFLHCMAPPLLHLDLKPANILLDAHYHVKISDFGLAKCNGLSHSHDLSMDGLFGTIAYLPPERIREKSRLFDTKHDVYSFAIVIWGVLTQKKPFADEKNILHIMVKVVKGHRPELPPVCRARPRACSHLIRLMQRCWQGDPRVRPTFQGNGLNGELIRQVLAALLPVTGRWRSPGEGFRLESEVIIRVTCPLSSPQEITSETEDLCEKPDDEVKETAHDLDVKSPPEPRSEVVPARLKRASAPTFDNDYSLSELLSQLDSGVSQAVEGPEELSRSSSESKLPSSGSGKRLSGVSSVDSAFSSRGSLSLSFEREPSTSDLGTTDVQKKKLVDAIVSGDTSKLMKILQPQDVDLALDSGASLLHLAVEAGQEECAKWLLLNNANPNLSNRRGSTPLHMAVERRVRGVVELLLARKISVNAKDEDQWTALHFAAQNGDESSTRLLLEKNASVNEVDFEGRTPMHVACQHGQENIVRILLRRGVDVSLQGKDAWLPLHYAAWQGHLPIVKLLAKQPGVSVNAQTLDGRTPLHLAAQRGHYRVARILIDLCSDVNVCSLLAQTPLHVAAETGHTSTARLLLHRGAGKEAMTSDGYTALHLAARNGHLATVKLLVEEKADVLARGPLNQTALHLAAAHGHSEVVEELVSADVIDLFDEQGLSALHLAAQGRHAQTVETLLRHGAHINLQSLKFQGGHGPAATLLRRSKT
Chain of Serine/threonine-protein kinase PAK 6 (Homo sapiens) (Q9NQU5 whole entry, looked up): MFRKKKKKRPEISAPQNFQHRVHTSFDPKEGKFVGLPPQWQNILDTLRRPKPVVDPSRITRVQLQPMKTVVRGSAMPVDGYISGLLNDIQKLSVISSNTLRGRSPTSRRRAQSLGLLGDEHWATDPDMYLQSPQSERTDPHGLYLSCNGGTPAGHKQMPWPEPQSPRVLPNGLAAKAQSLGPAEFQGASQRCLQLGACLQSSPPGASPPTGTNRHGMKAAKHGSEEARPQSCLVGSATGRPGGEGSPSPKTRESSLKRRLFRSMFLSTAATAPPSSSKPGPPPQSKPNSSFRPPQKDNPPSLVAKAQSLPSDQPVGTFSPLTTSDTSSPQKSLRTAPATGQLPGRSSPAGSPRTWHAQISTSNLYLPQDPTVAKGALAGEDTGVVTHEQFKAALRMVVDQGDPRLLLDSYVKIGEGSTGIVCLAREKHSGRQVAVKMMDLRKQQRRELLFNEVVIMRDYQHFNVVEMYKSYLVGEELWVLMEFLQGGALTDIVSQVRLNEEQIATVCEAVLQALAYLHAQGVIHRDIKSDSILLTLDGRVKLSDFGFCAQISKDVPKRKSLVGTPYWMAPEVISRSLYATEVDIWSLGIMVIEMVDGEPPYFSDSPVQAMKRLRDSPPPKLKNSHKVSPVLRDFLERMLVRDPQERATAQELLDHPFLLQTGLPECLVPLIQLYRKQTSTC
Chain of Acetylcholinesterase (Homo sapiens) (P22303 whole entry): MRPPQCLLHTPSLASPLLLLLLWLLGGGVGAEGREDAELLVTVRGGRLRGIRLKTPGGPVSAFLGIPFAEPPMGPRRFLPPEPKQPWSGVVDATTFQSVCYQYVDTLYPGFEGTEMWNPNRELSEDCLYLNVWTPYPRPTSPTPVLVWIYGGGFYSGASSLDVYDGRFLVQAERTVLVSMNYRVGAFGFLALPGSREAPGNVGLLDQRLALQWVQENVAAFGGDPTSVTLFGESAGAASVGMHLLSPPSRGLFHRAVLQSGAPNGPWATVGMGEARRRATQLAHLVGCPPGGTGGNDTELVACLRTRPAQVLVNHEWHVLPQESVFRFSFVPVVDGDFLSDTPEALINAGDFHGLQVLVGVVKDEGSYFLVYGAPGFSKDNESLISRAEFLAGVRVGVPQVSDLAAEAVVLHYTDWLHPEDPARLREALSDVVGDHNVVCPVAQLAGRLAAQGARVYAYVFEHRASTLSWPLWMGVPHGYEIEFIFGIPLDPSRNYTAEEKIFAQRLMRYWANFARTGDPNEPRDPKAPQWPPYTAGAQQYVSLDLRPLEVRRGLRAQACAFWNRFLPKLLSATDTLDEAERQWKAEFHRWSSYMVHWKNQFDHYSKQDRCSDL
Chain of D(1A) dopamine receptor (Homo sapiens) (P21728 whole entry): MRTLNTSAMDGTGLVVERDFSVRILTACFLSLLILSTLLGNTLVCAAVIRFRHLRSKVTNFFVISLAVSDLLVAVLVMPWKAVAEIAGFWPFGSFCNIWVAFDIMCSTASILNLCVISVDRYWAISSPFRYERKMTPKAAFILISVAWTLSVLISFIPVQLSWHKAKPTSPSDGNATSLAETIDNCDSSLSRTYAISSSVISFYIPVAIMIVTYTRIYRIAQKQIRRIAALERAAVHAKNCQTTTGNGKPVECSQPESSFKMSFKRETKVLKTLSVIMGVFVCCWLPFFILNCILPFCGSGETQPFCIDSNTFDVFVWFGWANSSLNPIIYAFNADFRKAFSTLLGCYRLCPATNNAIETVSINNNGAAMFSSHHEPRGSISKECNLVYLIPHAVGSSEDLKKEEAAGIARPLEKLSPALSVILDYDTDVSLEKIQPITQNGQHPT
Chain of Adenosine receptor A2a (Homo sapiens) (P29274 whole entry): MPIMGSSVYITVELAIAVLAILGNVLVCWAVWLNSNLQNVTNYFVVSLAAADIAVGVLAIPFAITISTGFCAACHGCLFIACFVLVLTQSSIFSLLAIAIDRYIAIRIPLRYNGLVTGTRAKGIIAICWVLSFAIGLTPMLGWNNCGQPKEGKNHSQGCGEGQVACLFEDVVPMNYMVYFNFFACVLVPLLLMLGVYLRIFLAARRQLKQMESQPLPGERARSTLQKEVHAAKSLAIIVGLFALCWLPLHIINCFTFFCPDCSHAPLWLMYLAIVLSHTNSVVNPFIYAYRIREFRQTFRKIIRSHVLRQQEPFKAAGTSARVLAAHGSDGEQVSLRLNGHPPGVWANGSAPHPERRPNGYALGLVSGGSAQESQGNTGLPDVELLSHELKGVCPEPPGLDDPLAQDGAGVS

CNC(=O)Nc1ccc2c(c1)[C@@]1(CC2)OC(=O)N(CC(=O)N(Cc2ccc(F)cc2)[C@@H](C)C(F)(F)F)C1=O [A-486]
inactive: residual activity [1] 100% | residual activity [2] 100% | residual activity [3] 96% | residual activity [4] 100% | residual activity [5] 100% | residual activity [6] 100% | inhibition [7] 26.6% | residual activity [8] 100% | residual activity [9] 100% | inhibition [10] -1% | inhibition [11] -1.33% | residual activity [12] 100% | inhibition [13] 8.88% | residual activity [14] 99% | residual activity [15] 83% | residual activity [16] 88% | inhibition [17] 6% | residual activity [18] 87% | residual activity [19] 100% | residual activity [20] 100% | residual activity [21] 52% | residual activity [22] 78% | inhibition [23] 8% | residual activity [24] 99% | residual activity [25] 100% | residual activity [26] 84% | residual activity [27] 70% | inhibition [28] -5% | residual activity [29] 83% | residual activity [30] 100% | residual activity [31] 100% | residual activity [32] 77% | residual activity [33] 88% | residual activity [34] 100% | residual activity [35] 97% | residual activity [36] 94% | residual activity [37] 79% | residual activity [38] 100%

CNC(=O)Nc1ccc2c(c1)CC[C@@]21OC(=O)N(CC(=O)N(Cc2ccc(F)cc2)[C@@H](C)C(F)(F)F)C1=O [A-485]
inactive: residual activity [1] 91% | residual activity [2] 100% | residual activity [3] 92% | residual activity [4] 100% | residual activity [5] 92% | residual activity [6] 100% | inhibition [7] 34.6% | residual activity [8] 86% | residual activity [9] 96% | inhibition [10] 7% | inhibition [11] 1.93% | residual activity [12] 100% | inhibition [13] 20.7% | residual activity [14] 84% | residual activity [15] 90% | residual activity [16] 75% | inhibition [17] -9% | residual activity [18] 72% | residual activity [19] 100% | residual activity [20] 88% | residual activity [21] 56% | residual activity [22] 95% | inhibition [23] -1% | residual activity [24] 96% | residual activity [25] 90% | residual activity [26] 83% | residual activity [27] 81% | inhibition [28] -4% | residual activity [29] 100% | residual activity [30] 100% | residual activity [31] 91% | residual activity [32] 74% | residual activity [33] 88% | residual activity [34] 88% | residual activity [35] 75% | residual activity [36] 96% | residual activity [37] 100% | residual activity [38] 100%
